Columns and labels:
Kasumi-1 cells = assay: Kasumi-1 cellular viability assay (ATP-Lite, 72 h); type: cell-based; conditions: Homo sapiens, ATP-Lite luminescence, % viability relative to DMSO
In short: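 Viability was read by ATP-Lite One Step luminescence after 72 h compound treatment at 37 °C/5% CO2, normalised to DMSO control, with IC50 fitted from concentration-response. Cells were Kasumi-1 (AML FAB M2) at 15000 per well in RPMI-1640/10% FBS, 0.1% DMSO final.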

[1] = biological target: T1, recombinant METTL3/METTL14 complex (Homo sapiens, UniProt Q86U44); assay: METTL3/14 Scintillation Proximity Assay (SPA), RNA methyltransferase activity; type: biochemical; conditions: 5.31 nM METTL3/14 complex, 250 nM RNA substrate, 1 μM 3H-SAM, 90 min; for compounds marked * best of the two separated forms
T1 construct: purchased Active Motif 311970; host or cells: Sf9 cells
T1 sequence (Q86U44 whole entry): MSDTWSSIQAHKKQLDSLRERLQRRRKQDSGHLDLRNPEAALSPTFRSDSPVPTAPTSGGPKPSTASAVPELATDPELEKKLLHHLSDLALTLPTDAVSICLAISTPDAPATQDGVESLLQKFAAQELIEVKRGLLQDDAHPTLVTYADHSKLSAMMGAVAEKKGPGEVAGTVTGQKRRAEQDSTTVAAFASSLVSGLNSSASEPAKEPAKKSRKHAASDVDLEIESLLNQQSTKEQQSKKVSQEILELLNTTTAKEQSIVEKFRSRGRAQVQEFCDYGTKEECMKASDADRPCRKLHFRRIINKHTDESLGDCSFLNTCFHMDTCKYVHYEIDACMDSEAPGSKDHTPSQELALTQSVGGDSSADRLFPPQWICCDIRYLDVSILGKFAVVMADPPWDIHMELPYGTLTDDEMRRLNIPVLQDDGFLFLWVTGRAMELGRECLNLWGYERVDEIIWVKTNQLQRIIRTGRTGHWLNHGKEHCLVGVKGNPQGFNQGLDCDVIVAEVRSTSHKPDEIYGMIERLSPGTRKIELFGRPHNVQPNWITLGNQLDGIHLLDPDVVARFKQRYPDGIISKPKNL
T1 sequence (Q9HCE5 whole entry partner): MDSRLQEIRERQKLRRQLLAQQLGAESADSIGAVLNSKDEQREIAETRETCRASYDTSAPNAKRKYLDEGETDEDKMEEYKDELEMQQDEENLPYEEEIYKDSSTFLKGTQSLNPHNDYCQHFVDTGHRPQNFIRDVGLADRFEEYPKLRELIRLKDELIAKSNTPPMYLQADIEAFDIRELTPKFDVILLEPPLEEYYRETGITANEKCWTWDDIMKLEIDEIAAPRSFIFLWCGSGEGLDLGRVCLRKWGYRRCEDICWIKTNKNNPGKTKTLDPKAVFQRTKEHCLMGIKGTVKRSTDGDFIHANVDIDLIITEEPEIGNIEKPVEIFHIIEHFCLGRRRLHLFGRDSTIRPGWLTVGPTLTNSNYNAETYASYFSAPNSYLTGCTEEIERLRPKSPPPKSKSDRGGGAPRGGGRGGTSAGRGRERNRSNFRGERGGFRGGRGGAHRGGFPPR

Caov-3 cells = assay: Caov-3 cellular viability assay (ATP-Lite, 72 h); type: cell-based; conditions: Homo sapiens, ATP-Lite luminescence, % viability relative to DMSO
In short: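 IC50 values come from concentration-response fits of luminescent ATP content (ATP-Lite One Step), normalised as % viability versus DMSO. Compound exposure was 72 h at 37 °C in RPMI-1640/10% FBS with 0.1% final DMSO. Wells held 10000 cells each.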

| SMILES | IC50 (Kasumi-1 cells) [nM] | IC50 [1] [nM] | IC50 (Caov-3 cells) [nM] |
| --- | --- | --- | --- |
| c1cc(Cn2cc(-c3cncc(N4CCCC4)n3)nn2)ncc1N1CCC[C@@H](NCC2CCC2)C1 [Compound 282, (R)-N-(cyclobutylmethyl)-1-(6-((4-(6-(pyrrolidin-1-yl)pyrazin-2-yl)-1H-1,2,3-triazol-1-yl)methyl)pyridin-3-yl)piperidin-3-amine] | ≤ 500 | ≤ 50 | ≤ 500 |
| c1cc(C2(n3cc(-c4cncc(C5CC5)n4)nn3)COC2)ncc1N1CCC[C@@H](NCC2CCC2)C1 [Compound 283, (R)-N-(cyclobutylmethyl)-1-(6-(3-(4-(6-cyclopropylpyrazin-2-yl)-1H-1,2,3-triazol-1-yl)oxetan-3-yl)pyridin-3-yl)piperidin-3-amine] | ≤ 500 | ≤ 50 | ≤ 500 |
| c1cc(N2CCC[C@@H](NCC3CCC3)C2)ccc1Cn1cc(-c2cncc(N3CCCC3)n2)nn1 [Compound 287, (R)-N-(cyclobutylmethyl)-1-(4-((4-(6-(pyrrolidin-1-yl)pyrazin-2-yl)-1H-1,2,3-triazol-1-yl)methyl)phenyl)piperidin-3-amine] | ≤ 500 | ≤ 50 | ≤ 500 |
| c1cc(N2CCC[C@@H](NCC3CCC3)C2)ccc1Cn1cc(-c2cncc(N3CC4CC4C3)n2)nn1 (stereo partly drawn) [Compound 288, (3R)-1-(4-((4-(6-(3-azabicyclo[3.1.0]hexan-3-yl)pyrazin-2-yl)-1H-1,2,3-triazol-1-yl)methyl)phenyl)-N-(cyclobutylmethyl)piperidin-3-amine] | ≤ 500 | ≤ 50 | ≤ 500 |
| c1cnn(-c2cncc(-c3cn(C4(c5ccc(N6CCC[C@@H](NCC7CCC7)C6)cn5)COC4)nn3)n2)c1 [Compound 289, (R)-1-(6-(3-(4-(6-(1H-pyrazol-1-yl)pyrazin-2-yl)-1H-1,2,3-triazol-1-yl)oxetan-3-yl)pyridin-3-yl)-N-(cyclobutylmethyl)piperidin-3-amine] | ≤ 500 | ≤ 50 | ≤ 500 |
| c1cc(C2(n3cc(-c4cncc(N5CC6CC6C5)n4)nn3)COC2)ncc1N1CCC[C@@H](NCC2CCC2)C1 (stereo partly drawn) [Compound 291, (3R)-1-(6-(3-(4-(6-(3-azabicyclo[3.1.0]hexan-3-yl)pyrazin-2-yl)-1H-1,2,3-triazol-1-yl)oxetan-3-yl)pyridin-3-yl)-N-(cyclobutylmethyl)piperidin-3-amine] | ≤ 500 | ≤ 50 | ≤ 500 |
| CC(c1ccc(N2CCC[C@@H](NCC3CCC3)C2)cn1)n1cc(-c2cncc(C3CC3)n2)nn1 (stereo partly drawn) [Compound 292, (3R)—N-(cyclobutylmethyl)-1-(6-(1-(4-(6-cyclopropylpyrazin-2-yl)-1H-1,2,3-triazol-1-yl)ethyl)pyridin-3-yl)piperidin-3-amine] | 500 to 5000 | ≤ 50 | 500 to 5000 |
| c1ccn(-c2cncc(-c3cn(C4(c5ccc(N6CCC[C@@H](NCC7CCC7)C6)cn5)COC4)nn3)n2)c1 [Compound 295, (R)-1-(6-(3-(4-(6-(1H-pyrrol-1-yl)pyrazin-2-yl)-1H-1,2,3-triazol-1-yl)oxetan-3-yl)pyridin-3-yl)-N-(cyclobutylmethyl)piperidin-3-amine] | ≤ 500 | ≤ 50 | 500 to 5000 |
| O=C(Nc1cnc2ccccc2n1)C1(c2ccc(N3CCC[C@@H](NCC4CCC4)C3)cn2)COC1 [Compound 297, (R)-3-(5-(3-((cyclobutylmethyl)amino)piperidin-1-Yl)pyridin-2-yl)-N-(quinoxalin-2-yl)oxetane-3-carboxamide] | > 5000 | ≤ 50 | 500 to 5000 |
| O=C(Nc1cc(=O)n2ccccc2n1)C1(c2ncc(N3CCC[C@@H](NCC4CCC4)C3)cc2F)COC1 [Compound 298, (R)-3-(5-(3-((cyclobutylmethyl)amino)piperidin-1-yl)-3-fluoropyridin-2-yl)-N-(4-oxo-4H-pyrido[1,2-a]pyrimidin-2-yl)oxetane-3-carboxamide] | 500 to 5000 | ≤ 50 | 500 to 5000 |
| c1cc(C2(n3cc(-c4cncc(N5CCCC5)n4)nn3)COC2)ccc1N1CCC[C@@H](NCC2CCC2)C1 [Compound 301, (R)-N-(cyclobutylmethyl)-1-(4-(3-(4-(6-(pyrrolidin-1-yl)pyrazin-2-yl)-1H-1,2,3-triazol-1-yl)oxetan-3-yl)phenyl)piperidin-3-amine] | ≤ 500 | ≤ 50 | ≤ 500 |
| CC(c1ccc(N2CCC[C@@H](NCC34CC(F)(C3)C4)C2)cn1)n1cc(-c2cncc(N3CCCC3)n2)nn1 (stereo partly drawn) [Compound 304, (3R)—N-((3-fluorobicyclo[1.1.1]pentan-1-yl)methyl)-1-(6-(1-(4-(6-(pyrrolidin-1-yl)pyrazin-2-yl)-1H-1,2,3-triazol-1-yl)ethyl)pyridin-3-yl)piperidin-3-amine] | ≤ 500 | ≤ 50 | ≤ 500 |
| CC(c1ccc(N2CCC[C@@H](NCC34CC(F)(C3)C4)C2)nn1)n1cc(-c2cncc(N3CCCC3)n2)nn1 (stereo partly drawn) [Compound 305, (3R)—N-((3-fluorobicyclo[1.1.1]pentan-1-yl)methyl)-1-(6-(1-(4-(6-(pyrrolidin-1-yl)pyrazin-2-yl)-1H-1,2,3-triazol-1-yl)ethyl)pyridazin-3-yl)piperidin-3-amine] | ≤ 500 | ≤ 50 | ≤ 500 |
| c1ncc(C2CC2)cc1-c1cn(C2(c3ccc(N4CCC[C@@H](NCC5CCC5)C4)cn3)COC2)nn1 [Compound 306, (R)-N-(cyclobutylmethyl)-1-(6-(3-(4-(5-cyclopropylpyridin-3-yl)-1H-1,2,3-triazol-1-yl)oxetan-3-yl)pyridin-3-yl)piperidin-3-amine] | ≤ 500 | ≤ 50 | ≤ 500 |
| c1ncc(-c2cn(C3(c4ccc(N5CCC[C@@H](NCC6CCC6)C5)cn4)COC3)nn2)cc1OC1CCC1 [Compound 307, (R)-1-(6-(3-(4-(5-cyclobutoxypyridin-3-yl)-1H-1,2,3-triazol-1-yl)oxetan-3-yl)pyridin-3-yl)-N-(cyclobutylmethyl)piperidin-3-amine] | ≤ 500 | ≤ 50 | ≤ 500 |
| FC12CC(CN[C@@H]3CCCN(c4ccc(C5(n6cc(-c7cncc(N8CCCC8)n7)nn6)COC5)nc4)C3)(C1)C2 [Compound 308, (R)-N-((3-fluorobicyclo[1.1.1]pentan-1-yl)methyl)-1-(6-(3-(4-(6-(pyrrolidin-1-yl)pyrazin-2-yl)-1H-1,2,3-triazol-1-yl)oxetan-3-yl)pyridin-3-yl)piperdin-3-amine] | ≤ 500 | ≤ 50 | ≤ 500 |
| Cn1c(N2CCCC2)cc(NC(=O)C2(c3ccc(N4CCC[C@@H](NCC5CCC5)C4)cn3)COC2)cc1=O [Compound 310, (R)-3-(5-(3-((cyclobutylmethyl)amino)piperidin-1-yl)pyridin-2-yl)-N-(1-methyl-2-oxo-6-(pyrrolidin-1-yl)-1,2-dihydropyridin-4-yl)oxetane-3-carboxamide] | 500 to 5000 | ≤ 50 | ≤ 500 |
| O=C(Nc1cc(=O)n2ccsc2n1)C1(c2ccc(N3CCC[C@@H](NCC4CCC4)C3)cn2)COC1 [Compound 311, (R)-3-(5-(3-((cyclobutylmethyl)amino)piperidin-1-yl)pyridin-2-yl)-N-(5-oxo-5H-thiazolo[3,2-a]pyrimidin-7-yl)oxetane-3-carboxamide] | ≤ 500 | ≤ 50 | ≤ 500 |
| c1ncc(C2CCC2)cc1-c1cn(C2(c3ccc(N4CCC[C@@H](NCC5CC5)C4)cn3)COC2)nn1 [Compound 312, (R)-1-(6-(3-(4-(5-cyclobutylpyridin-3-yl)-1H-1,2,3-triazol-1-yl)oxetan-3-yl)pyridin-3-yl)-N-(cyclopropylmethyl)piperidin-3-amine] | ≤ 500 | ≤ 50 | ≤ 500 |
| c1ncc(C2CCCC2)cc1-c1cn(C2(c3ccc(N4CCC[C@@H](NCC5CC5)C4)cn3)COC2)nn1 [Compound 313, (R)-1-(6-(3-(4-(5-cyclopentylpyridin-3-yl)-1H-1,2,3-triazol-1-yl)oxetan-3-yl)pyridin-3-yl)-N-(cyclopropylmethyl)piperidin-3-amine] | ≤ 500 | ≤ 50 | ≤ 500 |
| FC1(F)CC(c2ccc(N3CCC[C@@H](NCC4CC4)C3)cn2)(n2cc(-c3cncc(C4CC4)c3)nn2)C1 [Compound 315, (R)-N-(cyclopropylmethyl)-1-(6-(1-(4-(5-cyclopropylpyridin-3-yl)-1H-1,2,3-triazol-1-yl)-3,3-difluorocyclobutyl)pyridin-3-yl)piperidin-3-amine] | 500 to 5000 | ≤ 50 | 500 to 5000 |
| O=c1cc(-c2cn(C3(c4ccc(N5CCC[C@@H](NCC6CC6)C5)cn4)COC3)nn2)nc2ccccn12 [Compound 316, (R)-2-(1-(3-(5-(3-((cyclopropylmethyl)amino)piperidin-1-yl)pyridin-2-yl)oxetan-3-yl)-1H-1,2,3-triazol-4-yl)-4H-pyrido[1,2-a]pyrimidin-4-one] | 500 to 5000 | ≤ 50 | 500 to 5000 |
| O=C(Nc1cncc(N2CCCC2)n1)C1(c2ccc(N3CCC[C@@H](NCC4CCC4)C3)nc2)COC1 [Compound 319, (R)-3-(6-(3-((cyclobutylmethyl)amino)piperidin-1-yl)pyridin-3-yl)-N-(6-(pyrrolidin-1-yl)pyrazin-2-yl)oxetane-3-carboxamide] | ≤ 500 | ≤ 50 | ≤ 500 |

— patent publication US20250002475A1 (EPICS THERAPEUTICS, priority 2023, published 2025)
